Results taken from PMC8662641, “Site-Specific Labeling of Endogenous Proteins Using CoLDR Chemistry” (Journal of the American Chemical Society, 2021).

Key:
BTK = BTK (Homo sapiens, UniProt Q06187); parameters: BTK kinase domain was expressed and purified as previously reported; made in house; method as in Reddi et al., J. Am. Chem. Soc. 2021, 143 (13), 4979–4992; settings: ref Reddi et al., J. Am. Chem. Soc. 2021, 143 (13), 4979–4992; cited from earlier work
BTK-1h = molecular target: T1, BTK-1h (Homo sapiens, UniProt Q06187); test: High-throughput screening with 1h-labeled BTK; format: binding; settings: Dataset S2A; 200 μM compound, BTK-1h, 32 °C, 10 min
T1 construct: The BTK kinase domain was diluted to 2 μM in the buffer, and 2 μM 1h was added; made in house
Protocol: The collection was composed of BTK binding compounds obtained in our previous luminescence screen[37] (Data set S2). […] The resulting BTK-1h (50 μL) was added to the inhibitors.

T1 sequence (Q06187 402-655): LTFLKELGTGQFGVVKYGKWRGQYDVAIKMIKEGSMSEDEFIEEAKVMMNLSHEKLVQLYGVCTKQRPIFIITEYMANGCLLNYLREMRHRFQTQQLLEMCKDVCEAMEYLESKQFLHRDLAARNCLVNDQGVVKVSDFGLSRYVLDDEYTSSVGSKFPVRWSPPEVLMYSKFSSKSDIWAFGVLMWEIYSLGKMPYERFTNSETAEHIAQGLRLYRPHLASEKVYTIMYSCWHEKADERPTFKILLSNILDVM
BTK, sequence (Q06187 402-655 limits assumed): as the sequence (Q06187 402-655) above

SMILES | FI (650)/FI (620) (BTK-1h) | FI (BTK-1h)/FI (BTK-1h+Inhibitor) at 620 nm (BTK-1h) | BTK Inhibition reported in luminescence assay* (BTK)
COC[C@H]1C[C@@H](c2ncc(-c3ccc4c(c3)COc3cc5c(ccc6[nH]c([C@@H]7CC[C@H](C)N7C(=O)[C@@H](NC(=O)OC)C(C)C)nc65)cc3-4)[nH]2)N(C(=O)[C@H](NC(=O)OC)c2ccccc2)C1 [PCM-0214920-001] | 0.8577 | 1.025 | 56
CC1(C)C=Cc2c(ccc3c2OC[C@@H](c2ccc(O)cc2O)C3)O1 [PCM-0214974-001] | 1.13 | 1.0065 | 70.3
COc1nc2ccc(Br)cc2cc1[C@@H](c1ccccc1)[C@@](O)(CCN(C)C)c1cccc2ccccc12.O=C(O)/C=C/C(=O)O [PCM-0215093-001] | 1.148 | 1.067 | 84
COc1ccc2c(O[C@@H]3C[C@H]4C(=O)N[C@]5(C(=O)NS(=O)(=O)C6CC6)C[C@H]5/C=C\CCCCN(C)C(=O)[C@@H]4C3)cc(-c3nc(C(C)C)cs3)nc2c1C [PCM-0215097-001] | 0.9923 | 1.053 | 55.6
CN[C@H]1C(=O)N[C@@H]2Cc3ccc(cc3)Oc3cc4cc(c3O[C@@H]3O[C@H](C(=O)O)[C@@H](O)[C@H](O)[C@H]3NC(=O)CCCCCCCCC(C)C)Oc3ccc(cc3Cl)[C@@H](O)[C@@H]3NC(=O)[C@H](NC(=O)[C@@H]4NC(=O)[C@@H](NC2=O)c2cc(cc(O)c2Cl)Oc2cc1ccc2O)c1ccc(O)c(c1)-c1c(O[C@H]2O[C@H](CO)[C@@H](O)[C@H](O)[C@@H]2O)cc(O)cc1[C@@H](C(=O)NCCCN(C)C)NC3=O [PCM-0215113-001] | 0.7724 | 1.097 | 73.2
Cl.N/C(=N\N=C\c1ccc(Cl)cc1)N/N=C/c1ccc(Cl)cc1 [PCM-0215125-001] | 1.174 | 1.002 | 77.8
CCCCCCCCCCCCCCCC(=O)O[C@@H]1[C@@H](O)[C@@H](O)[C@@H]([C@H](NC(=O)[C@@H]2C[C@@H](CCC)CN2C)[C@H](C)Cl)O[C@@H]1SC.Cl [PCM-0215167-001] | 0.5899 | 0.9902 | 73.2
C=CC(=O)Nc1cccc(Nc2nc(Nc3ccc(NC4CN(CCF)C4)cc3OC)ncc2C(F)(F)F)c1 [PCM-0215208-001] | 1.1509 | 1.028 | 91
C=CC(=O)N1CCN(C(=O)CNc2cc(I)c(Cl)cc2O)CC1 [PCM-0215367-001] | 1.111 | 1.004 | 84.9
C[C@@H](Oc1ccc2[nH]nc(/C=C/c3cnn(CCO)c3)c2c1)c1c(Cl)cncc1Cl [PCM-0215376-001] | 1.5356 | 1.156 | 101.4
CN1CCN(Cc2ccc(NC(=O)Nc3ccc(Oc4cc(NC(=O)C5CC5)ncn4)cc3)cc2C(F)(F)F)CC1 [PCM-0215388-001] | 1.014 | 1.145 | 79.5
CCS(=O)(=O)N1CCN(c2ccc(Nc3ncc(C(N)=O)c(NC4CC4)n3)cc2)CC1.Cl [PCM-0215389-001] | 1.233 | 1.12 | 85.5
COC(=O)N[C@H](C(=O)N1CC2(CC2)C[C@H]1c1ncc(-c2ccc3c(c2)C(F)(F)c2cc(-c4ccc5nc([C@@H]6[C@H]7CC[C@H](C7)N6C(=O)[C@@H](NC(=O)OC)C(C)C)[nH]c5c4)ccc2-3)[nH]1)C(C)C [PCM-0215396-001] | 0.8983 | 1.05 | 74.9
C=CC(=O)N1CCC(Oc2cc3c(Nc4ccc(Cl)c(Cl)c4F)ncnc3cc2OC)CC1 [PCM-0215416-001] | 1.023 | 1.082 | 119.3
O=C1NC(=O)C(c2cnc3ccccn23)=C1c1cn2c3c(cc(F)cc13)CN(C(=O)N1CCCCC1)CC2 [PCM-0215438-001] | 0.9847 | 1.0465 | 80
CCOC(=O)c1ccc(NC(=O)O[C@H]2[C@H](OC(=O)Nc3ccc4c(c3)OCO4)[C@@H](OC(=O)Nc3ccc4c(c3)OCO4)[C@@H](OC)O[C@@H]2CO)cc1 [PCM-0215463-001] | 0.9726 | 1.02 | 98.1

Further lines, with some results ahead:

FI (650)/FI (620) (BTK-1h) | FI (BTK-1h)/FI (BTK-1h+Inhibitor) at 620 nm (BTK-1h) | SMILES | BTK Inhibition reported in luminescence assay* (BTK)
0.9979 | 1.038 | COC1=CC(=O)c2ccccc2C1=O [PCM-0214886-001] | 85.6
1.083 | 1.158 | COc1cc(N2CCC(N(C)C)CC2)ccc1Nc1ncc(Cl)c(Nc2ccccc2P(C)(C)=O)n1 [PCM-0215177-001] | 64.8
0.9898 | 1.025 | O=C(NC(NC(=S)Nc1ccc(F)c([N+](=O)[O-])c1)C(Cl)(Cl)Cl)C(c1ccccc1)c1ccccc1 (stereo not drawn) [PCM-0215199-001] | 105.5
1.364 | 1.2233 | C1=C/COCc2cc(ccc2OCCN2CCCC2)Nc2nccc(n2)-c2cccc(c2)COC/1 [PCM-0215268-001] | 71.7
1.877 | 1.327 | COc1cc(N2CCC(N3CCN(C)CC3)CC2)ccc1Nc1ncnc(Nc2ccccc2S(=O)(=O)C(C)C)n1 [PCM-0215273-001] | 89
1.5507 | 1.003 | Cc1ccc(NC(=O)Nc2cc(C(F)(F)F)ccc2F)cc1Nc1ccc2c(c1)NC(=O)/C2=C\c1ccc[nH]1 [PCM-0215372-001] | 115.9
1.4774 | 1.04 | CN1CCN(Cc2ccc(-c3cnc4[nH]cc(-c5ccc6[nH]ccc6c5)c4c3)cc2)CC1 [PCM-0215377-001] | 111
1.912 | 0.9002 | O=C(O)CSc1cc(NS(=O)(=O)c2ccc(Br)cc2)c2ccccc2c1O [PCM-0215378-001] | 51.7
1.18 | 1.008 | Cc1cc(N=Nc2ccc(S(=O)(=O)Nc3ccccn3)cc2)c(N)cc1O [PCM-0215414-001] | 76.4
1.009 | 1.056 | CC#CC(=O)Nc1ccc2ncnc(Nc3cccc(Br)c3)c2c1 [PCM-0215449-001] | 102.8
1.101 | 1.031 | C=CC(=O)Nc1cc(Nc2nccc(-c3c[nH]c4ccccc34)n2)c(OC)cc1N(C)CCN(C)C [PCM-0215489-001] | 91.7
